Peptide text beside a SMILES is read from it.
Columns and labels:
A. baumannii ATCC17978 = test: microbe, parasite or virus in culture; type: cell-based, Acinetobacter baumannii
Description: (§1) All peptides were screened for antimicrobial activity against E. coli BW25113, E. coli ATCC25922, and E. coli W3110. A select group of the peptides was further tested against E. coli mcr-1, E. coli EQASmcr-1 (EQAS 2016 412016126), E. coli EQASmcr-2 (EQAS 2016 KP37), E. coli EQASmcr-3 (EQAS 2017 2013-SQ352), K. pneumoniae ATCC13883, P. aeruginosa ATCC27853, and A. baumannii ATCC17978. The antimicrobial assay was performed according to CLSI guidelines. Bacteria were plated out directly from their glycerol stocks on blood agar plates, incubated overnight at 37 °C, and then kept in the fridge. The blood agar plates were only used for 2 weeks and then replaced.
(§2) One colony from a blood agar plates was inoculated in Lysogeny Broth (LB) at 37 °C until a 0.5 optical density at 600 nm (OD600) was reached (compared to the sterility control of LB). The bacterial suspension was diluted in fresh LB to 2.0 × 10^6 CFU/mL. The serial dilutions were prepared in polypropylene microtiter plates: a stock of the test compounds was prepared with a 2x final concentration in LB. Moreover, 100 µL of the stock was added to the wells of the top row of which 50 µL was used for the serial dilution. The bottom row of each plate was used as the positive (50 µL of LB) and negative controls (100 µL of LB) (6 wells each). Furthermore, 50 µL of the 2.0 × 10^6 CFU/mL bacterial stock was added to each well except for the negative controls, adding up to a total volume of 100 µL per well. The plates were sealed with a breathable seal and incubated for 20 h at 37 °C and 600 rpm.
(§3) Two 96-well plates were required per compound. A serial dilution of the compound was performed on two plates from row A–G using with LB as medium. Row H was filled with 25 µL medium. On a separate plate a negative control (8 wells, 100 μL medium) was prepared. For all concentrations of antibiotic a specific stock was prepared. 25 µL medium was added to the 0 µg/mL antibiotic columns (plate I, column 1–3). Of each antibiotic stock 25 µL was added to three columns to obtain triplicates for every condition. Both plates contained 50 µL in each well to which 50 µL bacterial stock was added (see the protocol of the MIC assays) and the plates were sealed. After incubation for 20 h at 37 °C while shaking, the breathable seals were removed and the density of the bacterial suspensions measured at 600 nm (OD600) using a Tecan Spark plate reader. The OD600 values were transformed to a 2D gradient with the negative control as minimum and the positive control (wells G1, G2, and G3) as maximum in excel. The FICi was calculated using Equation (1) with a FICi ≤ 0.5 indicating synergy. FICi = (MSCa/MICa) + (MSCb/MICb),(1)
(§4) Calculation of the FICi: MSCa = concentration of the […] in combination with the antibiotic that results in the lowest FICi. MICa = MIC of the antibiotic without synergist (row G). MSCb = concentration of the synergist in combination with the antibiotic that results in the lowest FICi. MICb = MIC of the synergist itself (Column 1–3, plate I).

E. coli BW25113 [1] = test: microbe, parasite or virus in culture; type: cell-based, Escherichia coli
P. aeruginosa ATCC27853 = test: Checkerboard assay with rifampicin; type: cell-based, Pseudomonas aeruginosa; settings: P. aeruginosa ATCC27853
Description: as §1, §2, §3, §4

E. coli ATCC25922 = type: cell-based, Escherichia coli
Summary of the method: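 Checkerboard of peptide serial dilutions against rifampicin concentrations in triplicate, in LB with 1.0 × 10^6 CFU/mL final inoculum after mixing the 2.0 × 10^6 CFU/mL stock 1:1, 20 h at 37 °C shaking. OD600 read; FICi = MSCa/MICa + MSCb/MICb, ≤0.5 taken as synergy.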

[2] = system: E. coli EQASmcr-1 (EQAS 2016 412016126); type: cell-based, Escherichia coli
E. coli W3110 = type: cell-based, Escherichia coli
K. pneumoniae ATCC13883 = test: Checkerboard assay with rifampicin; type: cell-based, Klebsiella pneumoniae; settings: K. pneumoniae ATCC13883
Description: as §1, §2, §3, §4

[3] = system: defibrinated sheep blood (red blood cells); test: Hemolysis assay; type: cell-based; settings: 200 µg/mL compound, 20 h incubation at 37 °C with defibrinated sheep blood, PBS 0.002% Tween20, absorbance 415 nm, relative to 0.1% Triton X-100; n=3 technical replicates
Summary of the method: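 % hemolysis is supernatant absorbance at 415 nm, minus the buffer-only background, relative to 0.1% Triton X-100 lysis. Compound dilutions (200–1.56 µg/mL before adding cells) were incubated with an equal volume of red cells for 20 h at 37 °C and 500 rpm. Cells were washed and normalized in PBS/0.002% Tween20 to about 2.5 A415 at full lysis.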

E. coli BW25113 [4] = test: Checkerboard assay with erythromycin; type: cell-based, Escherichia coli
E. coli BW25113 [5] = test: microbe, parasite or virus in culture; type: cell-based, Escherichia coli; remark: listed apart in the source
[6] = peptide concentration in the combination with rifampicin giving the lowest FICi
[7] = rifampicin concentration in the combination giving the lowest FICi

For `CC[C@H](C)[C@H](NC(=O)[C@H](Cc1c[nH]c2ccccc12)NC(=O)[C@H](CCCCN)NC(=O)[C@H](CCCCN)NC(=O)[C@H](CC(C)C)NC(=O)[C@H](CCCNC(=N)N)NC(=O)[C@H](Cc1ccccc1)NC(=O)[C@@H](N)C(C)C)C(=O)N[C@@H](CCC(N)=O)C(=O)N[C@@H](CCCCN)C(=O)N[C@H](C(=O)N[C@@H](C)C(N)=O)C(C)C` [peptide 19] (H-VFRLKKWIQKVA-NH2), the FICi (A. baumannii ATCC17978; ATCC17978, 20 h) was 0.0938, the MICpeptide (A. baumannii ATCC17978; peptide alone, A. baumannii ATCC17978) was 100 µg/mL and the MSCpeptide (A. baumannii ATCC17978; peptide concentration in the combination with rifampicin giving the lowest FICi, A. baumannii ATCC17978) was 6.25 µg/mL. For the same compound, the MSCrif (A. baumannii ATCC17978; rifampicin concentration in the combination giving the lowest FICi, A. baumannii ATCC17978) was 0.063 µg/mL, the MICpeptide (E. coli BW25113 [1]; synergist alone, E. coli BW25113, from checkerboard with vancomycin) was 200 µg/mL and the MSCpeptide (E. coli BW25113 [1]; synergist concentration in the combination with vancomycin giving the lowest FICi, E. coli BW25113) was 12.5 µg/mL. For the same compound, the MSCvanco (E. coli BW25113 [1]; vancomycin concentration in the combination giving the lowest FICi, E. coli BW25113) was 6.25 µg/mL, the MICpeptide (P. aeruginosa ATCC27853; peptide alone) was 100 µg/mL and the MSCpeptide (P. aeruginosa ATCC27853; [6]) was 25 µg/mL. The MSCrif (P. aeruginosa ATCC27853; [7]) was 0.25 µg/mL, the FICi (E. coli ATCC25922; ATCC25922, 20 h) was 0.0313 and the MICpeptide (E. coli ATCC25922; peptide alone, E. coli ATCC25922) was greater than 200 µg/mL. It also gave an MSCpeptide (E. coli ATCC25922; peptide concentration in the combination with rifampicin giving the lowest FICi, E. coli ATCC25922) of 6.25 µg/mL, an MSCrif (E. coli ATCC25922; rifampicin concentration in the combination giving the lowest FICi, E. coli ATCC25922) of 0.063 µg/mL and an FICi ([2]; EQASmcr-1 (EQAS 2016 412016126, 20 h)) of 0.0938. It also gave an MICpeptide ([2]; peptide alone, E. coli EQASmcr-1) greater than 200 µg/mL, an MSCpeptide ([2]; peptide concentration in the combination with rifampicin giving the lowest FICi, E. coli EQASmcr-1) of 12.5 µg/mL and an MSCrif ([2]; rifampicin concentration in the combination giving the lowest FICi, E. coli EQASmcr-1) of 0.5 µg/mL. It also gave an FICi (E. coli W3110; W3110, 20 h) of 0.0782, an MICpeptide (E. coli W3110; peptide alone, E. coli W3110) of 100 µg/mL and an MSCpeptide (E. coli W3110; peptide concentration in the combination with rifampicin giving the lowest FICi, E. coli W3110) of 3.125 µg/mL. For the same compound, the MSCrif (E. coli W3110; rifampicin concentration in the combination giving the lowest FICi, E. coli W3110) was 0.5 µg/mL, the MICpeptide (K. pneumoniae ATCC13883; peptide alone) was greater than 200 µg/mL and the MSCpeptide (K. pneumoniae ATCC13883; [6]) was 6.25 µg/mL. The MSCrif (K. pneumoniae ATCC13883; [7]) was 0.25 µg/mL, the Hemolysis [3] was 1.0% and the MSCery (E. coli BW25113 [4]; erythromycin concentration in the combination with the synergist giving the lowest FICi, E. coli BW25113) was 12.5 µg/mL. For the same compound, the “MIC of the peptide (MICpep)” value (E. coli BW25113 [4]; synergist alone, E. coli BW25113, LB, 20 h 37 °C, from checkerboard with erythromycin) was 100 µg/mL, the “MSCpeptide, minimum synergistic concentration” value (E. coli BW25113 [4]; synergist concentration in the combination with erythromycin giving the lowest FICi, E. coli BW25113, LB, 20 h 37 °C, OD600) was 3.125 µg/mL and the FICi (E. coli BW25113 [5]; BW25113, 20 h) was 0.0390. It also gave an MSCnovo (E. coli BW25113 [5]; novobiocin concentration in the combination giving the lowest FICi, E. coli BW25113) of 3.125 µg/mL, an MICpeptide (E. coli BW25113 [5]; synergist alone, E. coli BW25113, from checkerboard with novobiocin) of 200 µg/mL and an MSCpeptide (E. coli BW25113 [5]; synergist concentration in the combination with novobiocin giving the lowest FICi, E. coli BW25113) of 6.25 µg/mL.

Reference: publication PMC8037310, “Thrombin-Derived Peptides Potentiate the Activity of Gram-Positive-Specific Antibiotics against Gram-Negative Bacteria” (Molecules, 2021)
